Results from article PMC7010297, “How the initiating ribosome copes with ppGpp to translate mRNAs” (PLoS Biology, 2020).
Several values for one entry are separate records, joined by “and”; a condition that tells them apart may be missing. Identical values can stand only once.

Key:
IF2-bound 30S IC = target: T1, IF2-bound 30S IC (Escherichia coli, UniProt P0A705); experiment: 30S IC formation by MST, guanosine nucleotide titration; format: binding;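 on MST Average: lower thermophoresis signal means Bpy-tRNAi dissociation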;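 on MST Replicates (a.u.): lower thermophoresis signal means Bpy-tRNAi dissociation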
T1 construct: 6xHis (N); made in house
Excerpt: (§1) To monitor the interaction of initiator tRNA and 30S ribosomal subunits, we used Microscale Thermophoresis (MST) with a fluorescently labelled initiator tRNA (Bpy-tRNAi) (Fig 1B). MST allows to measure fluorescence in a constrained space. Changes on the readout derive from molecular drifts resulting from small thermal equilibrium perturbations. Upon equilibrium perturbations, the patterns of Bpy-tRNAi migration away from the observation space are related to bound and unbound states (Fig 1B). […] On the contrary, a decrease in thermophoresis indicated the dissociation of Bpy-tRNAi. The relation between fluorescence measured at both equilibriums (Ff to Fi, after and prior to the perturbation, respectively) as a function of ligand concentration allowed to determine dissociation constants of the interaction (Fig 1C).
(§2) Continuous lines indicate nonlinear regression fittings with a quadratic equation. Three measurements were performed; mean and standard deviation are plotted (S1 Data). (B) as (A) to measure the concentration dependence for each tested guanosine nucleotide at constant IF2 (1 μM). […] Continuous lines show best fits using exponential functions. (D) Formation of 70S IC as measured by Bpy-tRNAi accommodation in the P site of the ribosome; 0.1 μM 30S ICs were formed with Bpy-tRNAi and rapidly mixed with 0.3 μM 50S subunits on a stopped-flow apparatus as described in [14]. Colors are as in (C). Continuous lines show best fits using an exponential function for a single reaction step. Each stopped-flow trace results from the mean of 5 to 7 replicates.
MST was calculated from the respective fluorescence time dependencies (S3 Fig). […] Symbols as in (B). […] Continuous lines indicate nonlinear regression fittings with quadratic (B and E) or same-site competition (G) functions. Three measurements were performed; mean and standard deviations are plotted (S1 Data).

[1] = target: T2, 30S IC (30S-bound IF2, Bpy-tRNAi) (Escherichia coli, UniProt P0A705); experiment: 30S IC formation measured by MST at increasing concentrations of IF2 with guanosine nucleotides; format: binding; details: Fig 2A
T2 construct: 6xHis (N); made in house
Excerpt: as §1, §2

[2] = target: T3, 70S pre-IC (50S joining to 30S IC) (Escherichia coli, UniProt P0A705); experiment: 70S pre-IC formation by light scattering, stopped-flow; format: biochemical; set-up: K1, best-fit value / k2, best-fit value: unit not given here; details: for kfast (s-1) Avg: light scattering
T3 construct: 6xHis (N); made in house
Description: as §2
(A) Scheme of 70S IC formation. […] Time traces were analyzed by nonlinear regression with exponential terms. […] Formation of 70S IC, as measured by Bpy-tRNAi accommodation in the absence (F) or presence of 200 μM ppGpp (G). Time traces were analyzed by nonlinear regression with one exponential term. […] Continuous lines show best fits using an exponential function for a single reaction step. All time traces are mean values of 5 to 10 replicates. Bar graphs show mean and standard errors (error bars) derived from the nonlinear regression fitting (D,E,H,I) (S1 Data).
To measure 70S pre-IC formation, a SX-20 stopped-flow instrument (Applied Photophysics, Leatherhead, UK) was set up for LS recording with an excitation wavelength of 430 nm. Scattered light was measured at an angle of 90° without a filter. Pseudo first-order conditions were approximated by using ≥3-fold excess of 50S subunits over 30S ICs; 0.2 μM 30S ICs were rapidly mixed in the instrument with 0.6 μM 50S at 25 °C. Bpy-tRNAi accommodation was measured essentially as described elsewhere. Briefly, 0.2 μM 30S ICs were formed using Bpy-tRNAi and rapidly mixed with 0.6 μM 50S at 25 °C. Fluorescence was excited at 470 nm and measured after a 495-nm longpass filter. Individual traces (6–11 traces) were averaged, and the resulting kinetic curve was approximated by single (F = A0 + A1*exp (-kapp1*t)) or double (F = A0 + A1*exp (-kapp1*t) + A2*exp (-kapp2*t)) exponential fit using Graphpad Prism 6.0 software (GraphPad, San Diego, California).

[3] = mInfA, fit Y=A0+A1*exp(-K1*x)+k2*x
[4] = mMF1, fit Y=A0+A1*exp(-K1*x)+k2*x
[5] = mTufA, fit Y=A0+A1*exp(-K1*x)+k2*x

T3 sequence (P0A705 whole entry, looked up): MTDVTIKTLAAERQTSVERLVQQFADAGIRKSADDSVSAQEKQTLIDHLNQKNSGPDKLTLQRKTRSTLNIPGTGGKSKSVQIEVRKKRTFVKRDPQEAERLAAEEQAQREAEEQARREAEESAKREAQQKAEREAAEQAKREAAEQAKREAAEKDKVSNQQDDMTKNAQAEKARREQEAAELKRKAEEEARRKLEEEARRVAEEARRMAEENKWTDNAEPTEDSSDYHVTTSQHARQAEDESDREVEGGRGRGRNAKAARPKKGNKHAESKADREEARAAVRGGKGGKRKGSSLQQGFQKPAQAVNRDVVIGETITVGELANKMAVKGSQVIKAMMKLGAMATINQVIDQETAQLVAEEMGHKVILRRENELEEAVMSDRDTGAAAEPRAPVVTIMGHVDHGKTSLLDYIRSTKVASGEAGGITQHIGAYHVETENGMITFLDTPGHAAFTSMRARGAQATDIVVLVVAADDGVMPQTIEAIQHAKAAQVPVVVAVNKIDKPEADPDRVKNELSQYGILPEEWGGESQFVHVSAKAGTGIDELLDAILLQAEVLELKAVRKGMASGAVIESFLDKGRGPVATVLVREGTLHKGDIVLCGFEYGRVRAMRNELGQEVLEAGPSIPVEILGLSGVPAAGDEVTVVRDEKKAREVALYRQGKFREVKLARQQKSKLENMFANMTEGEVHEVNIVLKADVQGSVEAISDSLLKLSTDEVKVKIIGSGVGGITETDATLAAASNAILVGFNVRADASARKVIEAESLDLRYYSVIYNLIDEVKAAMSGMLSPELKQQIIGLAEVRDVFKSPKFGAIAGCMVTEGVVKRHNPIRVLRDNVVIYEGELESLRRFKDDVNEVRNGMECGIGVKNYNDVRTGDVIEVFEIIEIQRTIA
T2 sequence (P0A705 whole entry, looked up): as above
T1 sequence (P0A705 whole entry, looked up): as above

In the case of `Nc1nc2c(ncn2[C@@H]2O[C@H](COP(=O)(O)OP(=O)(O)OP(=O)(O)O)[C@@H](O)[C@H]2O)c(=O)[nH]1` [GTP, guanosine triphosphate], the “MST Replicates (a.u.)” value (IF2-bound 30S IC; mMF1, GTP 0.122 μM) is reported as 957.75 a.u. and 961.91 a.u. and 962.05 a.u, the “MST Average” value (IF2-bound 30S IC; mMF1, GTP 0.244 μM) is reported as 971.65 a.u and the “MST Replicates (a.u.)” value (IF2-bound 30S IC; mMF1, GTP 0.244 μM) is reported as 968.94 a.u. For the same compound, the “MST Average” value (IF2-bound 30S IC; mMF1, GTP 1.953 μM) was 1013.90 a.u, the “MST Average” value (IF2-bound 30S IC; mMF1, GTP 3.906 μM) was 1027.63 a.u and the “MST Replicates (a.u.)” value (IF2-bound 30S IC; mMF1, GTP 3.906 μM) was 1022.88 a.u. and 1029.90 a.u. and 1030.12 a.u. For the same compound, the “MST Average” value (IF2-bound 30S IC; mMF1, GTP 7.812 μM) was 1034.32 a.u, the “MST Replicates (a.u.)” value (IF2-bound 30S IC; mMF1, GTP 7.812 μM) was 1030.42 a.u. and 1036.20 a.u. and 1036.34 a.u and the “MST Average” value (IF2-bound 30S IC; mMF1, GTP 15.625 μM) was 1039.20 a.u. For the same compound, the “MST Replicates (a.u.)” value (IF2-bound 30S IC; mMF1, GTP 15.625 μM) was 1035.40 a.u. and 1041.45 a.u. and 1040.76 a.u, the “MST Average” value (IF2-bound 30S IC; mMF1, GTP 31.25 μM) was 1035.42 a.u and the “MST Replicates (a.u.)” value (IF2-bound 30S IC; mMF1, GTP 31.25 μM) was 1032.74 a.u. and 1036.98 a.u. and 1036.55 a.u. The “KD of GTP with mTufA lower than with mMF1” value (IF2-bound 30S IC; mTufA vs mMF1) was “about 2 fold”, the “MST Average” value (IF2-bound 30S IC; mTufA, GTP 0.244 μM) was 1017.37 a.u and the “MST Average” value (IF2-bound 30S IC; mTufA, GTP 1.953 μM) was 1082.32 a.u. The “MST Average” value (IF2-bound 30S IC; mTufA, GTP 3.906 μM) was 1097.99 a.u, the “MST Replicates (a.u.)” value (IF2-bound 30S IC; mTufA, GTP 3.906 μM) was 1095.97 a.u. and 1098.36 a.u. and 1099.66 a.u and the “MST Average” value (IF2-bound 30S IC; mTufA, GTP 7.812 μM) was 1113.91 a.u. The “MST Replicates (a.u.)” value (IF2-bound 30S IC; mTufA, GTP 7.812 μM) was 1111.40 a.u. and 1114.56 a.u. and 1115.76 a.u, the “MST Average” value (IF2-bound 30S IC; mTufA, GTP 15.625 μM) was 1117.61 a.u and the “MST Replicates (a.u.)” value (IF2-bound 30S IC; mTufA, GTP 15.625 μM) was 1116.26 a.u. and 1117.65 a.u. and 1118.92 a.u. The “MST Average” value (IF2-bound 30S IC; mTufA, GTP 31.25 μM) was 1112.61 a.u, the “MST Replicates (a.u.)” value (IF2-bound 30S IC; mTufA, GTP 31.25 μM) was 1112.94 a.u. and 1112.01 a.u. and 1112.88 a.u and the Kd (IF2-bound 30S IC; nucleotide titration at constant IF2 (1 μM), read-out: KD for the IF2-bound 30S IC) was 500 ± 100 nM. For the same compound, the “MST Average” value ([1]; IF2 0.16 µM) was 1029.29 a.u, the “MST Average” value ([1]; IF2 0.31 µM) was 1076.43 a.u and the “MST Average” value ([1]; IF2 0.63 µM) was 1093.32 a.u. The “MST Average” value ([1]; IF2 1.25 µM) was 1094.97 a.u, the “MST Average” value ([1]; IF2 2.50 µM) was 1077.58 a.u and the “MST Average” value ([1]; IF2 5.00 µM) was 1077.76 a.u. The “kapp of 70S pre-IC formation (LS)” value ([2]; 30S complexes formed with 0.2 mM nucleotide, mixed with 50S subunits) was 2.9 ± 0.3 s^–1, the “A0, best-fit value” [2, 3] was 1.08 and the “K1, best-fit value” [2, 3] was 1.97. For the same compound, the “k2, best-fit value” [2, 3] was 0.0017 and 0.00173, the “A0, best-fit value” [2, 4] was 1.05 and the “A1, best-fit value” [2, 4] was -0.035. For the same compound, the “K1, best-fit value” [2, 4] was 1.98, the “k2, best-fit value” [2, 4] was 0.000317 and the “LS amplitude (a.u.) Avg” value ([2]; mRNA mInfA) was 0.062 a.u. The “LS amplitude (a.u.) Avg” value ([2]; mRNA mMF1) was 0.035 a.u, the “kfast (s-1) Avg” value ([2]; mRNA mMF1) was 1.98 s⁻¹ and the “LS amplitude (a.u.) Avg” value ([2]; mRNA mTufA) was 0.083 a.u. For the same compound, the “kfast (s-1) Avg” value ([2]; mRNA mTufA) was 5.20 s⁻¹, the “A0, best-fit value” [2, 5] was 1.11 and the “K1, best-fit value” [2, 5] was 5.20. For the same compound, the “k2, best-fit value” [2, 5] was 0.000653.
